The values that follow are results of earlier work, collected in patent publication US20190343774A1, “Compositions and Methods for Treating Neurologic Disorders” (PALUPA MEDICAL LTD., priority 2011, published 2019).

This data set deals with relapsing multiple sclerosis.

For the substance “Tysabri®: monoclonal antibody; second-line MS drug”, where the note is “known”, the “decrease of the possibility of disability accumulation” value is given as 43% and the “decrease on ARR” value is recorded as 68%.

With glatiramer acetate, where the note is “two-year trials”, the “reduction of the annualized relapse rate” value was “about one third”.
